Here are results for 15 molecules from PubChem BioAssay (NCI).

Common to all, as to test: growth of human tumour cells (NCI), 48 h
Test [1] has as its system HL-60(TB) leukemia.
The subject of test [2] is NCI-H522 lung.
Test [3] concerns OVCAR-5 ovarian.
Test [4] has as its system RXF 393 renal.
Test [5] has as its system UACC-62 melanoma.
Test [6] has as its system 786-0 renal.
Test [7] relates to DU-145 prostate.
Test [8] concerns OVCAR-3 ovarian.
The test system of test [9] is T-47D breast.
In test [10] the test system is MALME-3M melanoma.

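Compound exposure: 48 hours, 5 concentrations, 96-well plates. TGI: concentration producing complete growth inhibition.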 Where only a bound is given, the exact number is not on record here.

Take `O=C(Nc1cccc([N+](=O)[O-])c1)C(=O)C(C(=O)c1ccccc1F)C1OC(=O)C2C=CC=CC21` (configuration not stated): the TGI in [1] was 64 µM; in [2], 55.7 µM; in [3], more than 100 µM; in test [4], 48.6 µM; in test [5], more than 100 µM.

As to `C/C=C1/CN2CCC34c5ccccc5N(C)C23C2CC1C4(C(=O)OC)C(O)O2` (configuration not stated), the TGI in test [6], in [7], in test [1], in test [2], in test [8] and in test [3] was more than 100 µM each time. In addition, the TGI in [9] and in [5] was more than 100 µM throughout.

Take `NC(=O)Nc1ccc(C(=O)NCCCNC(=O)c2ccc(NC(N)=O)cc2)cc1`: the TGI in [7], in [1], in test [10], in [2], in test [3] and in test [4] was more than 100 µM each time. In addition, the TGI in test [9] and in [5] was more than 100 µM each time.

In the case of `Cc1c(NC(=O)c2cc([N+](=O)[O-])cc([N+](=O)[O-])c2)c(=O)n(-c2ccccc2)n1C`, the TGI in test [6], in [7], in test [1], in test [10], in [8] and in test [4] was more than 100 µM each time. In test [5], this molecule came in with a TGI of more than 100 µM.

For `O=C(Nc1sccc1S(=O)(=O)c1ccc(Cl)cc1)c1ccccc1`, the TGI in test [6], in [7], in [1], in test [10], in test [2] and in test [8] was more than 100 µM in each case. The TGI in test [3], in test [4], in [9] and in [5] was more than 100 µM in each case.

Consider `c1ccc(CCN2CCOCC2)nc1`, for which the TGI in test [6], in test [7], in test [1], in test [10], in [2] and in test [8] was more than 100 µM throughout. The TGI in test [3], in test [4], in test [9] and in [5] was more than 100 µM in each case.

For `Nc1cccc2c1C1=NNC(=O)CC1C2` (configuration not stated), the TGI in [1], in test [10], in [2], in test [8], in [3] and in test [4] was more than 100 µM each time. The TGI in [5] is more than 100 µM.

Consider `O=C1C(c2c(O)[nH]c3ccccc23)=Nc2ccc(Br)cc21`, for which the TGI in test [6] was 28.8 µM; in [7], more than 100 µM; in test [1], more than 100 µM; in test [10], more than 100 µM; in test [2], more than 100 µM; in [8] it was more than 100 µM. Besides, the TGI in test [3] was more than 100 µM; in test [4], 31 µM; in test [9], more than 100 µM; in test [5], 54 µM.

With `CC(=O)N1CC(=O)NC1=S`, the TGI in test [6], in test [1], in test [10], in test [2], in test [8] and in test [3] was more than 100 µM in each case. The TGI in [5] is more than 100 µM.

For the molecule `Cc1ccc([N+](=O)[O-])cc1S(=O)(=O)Nc1ccc(C2=NN(C(=O)c3ccccc3)C(c3cccs3)C2)cc1` (configuration not stated), the TGI was 45.2 µM in test [6]; more than 100 µM in test [7]; more than 100 µM in test [1]; 68.6 µM in test [10]; 70.8 µM in test [2]; 45.5 µM in [8]. The results for the TGI in test [3], in [4] and in test [9] were more than 100 µM, 56.8 µM and 84.2 µM, respectively.

As to `COc1c(O)c(O)c2c(c1O)C(=O)c1cc(C)cc(O)c1C2=O`, the TGI is more than 100 µM in test [6]; more than 100 µM in test [7]; more than 100 µM in test [1]; 83.5 µM in test [10]; 48.1 µM in test [2]; more than 100 µM in test [8]. Besides, the TGI in test [3] was more than 100 µM; in test [4], more than 100 µM; in test [9], more than 100 µM; in test [5] it was 54.5 µM.

In the case of `N#CCCOCN(CO)c1nc(N(CO)COCCC#N)nc(N(CO)COCCC#N)n1`, the TGI in [1] was 41.6 µM; in [10] it was 46.9 µM; in test [2] it was 47.5 µM; in test [8] it was 59.3 µM; in test [3], more than 100 µM; in [4] it was 38.4 µM.

Take `CCOC(=O)C(=O)Nc1c(CC)cccc1C(C)CC` (configuration not stated): the TGI in test [1], in test [10], in test [2], in test [8], in [3] and in [4] was more than 100 µM throughout. The TGI in test [5] is more than 100 µM.

As for `Cc1nc2c(O)cc3c4c(n(Cc5ccccc5)c3c2nc1C)C(=O)CCC4`, the TGI in test [6] was 69.1 µM; in test [7], more than 100 µM; in test [1] it was more than 100 µM; in test [10], more than 100 µM; in test [8], 83.2 µM; in [3] it was more than 100 µM. Also, the TGI was 32.2 µM in [4] and more than 100 µM in [5].

Turning to `COc1ccccc1/C=C/c1c(N)ncnc1Nc1cccc(Cl)c1`, the TGI in [6] was 26.6 µM; in test [7] it was more than 100 µM; in test [1], 0.969 µM; in test [10] it was 59.7 µM; in [2], 30.5 µM; in [8] it was 59.5 µM. Also, the TGI in test [3] is more than 100 µM; in test [4] it was 38.4 µM; in test [9], more than 100 µM; in [5] it was 33.3 µM.
